Data on seven compounds can be found in ChEMBL document CHEMBL5236584, “Design and synthesis of boron-containing ALK inhibitor with favorable in vivo efficacy” (Bioorg Med Chem, 2022).

The term pIC50 denotes the IC50 on a negative log10 scale, so that one unit is a factor of ten. One may read the Tmax as the time from dosing to the highest level. Broadly, the microsomal CLint is the capacity of the preparation to metabolise the compound, expressed as a volume cleared per time. As a reminder, the half-life is the time needed for the level to fall by half in the phase considered. A low value points to rapid decline. The amount remaining is the share of the starting amount still present when the sample was taken. Low values mean a greater loss, high ones greater stability. As a reminder, the Cmax is the peak of the concentration-time curve. A word on the AUC(0-t): it is the area under the concentration-time curve up to a stated or last time point. Higher therefore signals more exposure.

Data set [1] relates to NCI-H2228. Description: cells. The settings on record: Homo sapiens, NCI-H2228, 72 h.
Description: Antiproliferative activity against human NCI-H2228 cells assessed as reduction in cell viability measured after 72 hrs by CCK8 assay
Data set [2] in a line: Tmax in human NCI-H2228 cells xenografted BALB/c nu/nu mouse plasma at 50 mg/kg, po qd for 23 days by UPLC-MS/MS analysis. Format: ADME, organism-based. Particulars: time 23 day. (In general: Xenograft models place foreign cells or tissue in a host animal.)
In data set [3] the test system is NCI-H2228. Description: animal or person. The settings on record: Mus musculus, NCI-H2228, po, 552 h, read-out: TGI.
The nature of data set [4]: Drug uptake in tumor of BALB/c nu/nu mouse xenografted with human NCI-H2228 cells at 50 mg/kg, po qd for 23 days and measured at 6 hrs post-last drug dosage by UPLC-MS/MS analysis. Format: ADME, organism-based, Neoplasm. The settings on record: time 23 day, read-out: Drug uptake.
Data set [5] is described as follows: in vitro. The settings on record: human, liver microsomes.
Description: Intrinsic clearance in human liver microsomes at 1 uM preincubated for 5 mins followed by NADPH addition and measured for 60 mins by LC-MS/MS analysis
The nature of data set [6]: in vitro. Particulars: human, liver microsomes. This is another data set of the same source. (In general: Liver microsomes are vesicles of endoplasmic reticulum, rich in cytochrome P450 enzymes.)
Description: Half life in human liver microsomes at 1 uM preincubated for 5 mins followed by NADPH addition and measured for 60 mins by LC-MS/MS analysis
A short description of data set [7]: in vitro. The settings on record: mouse, liver microsomes.
Description: Metabolic stability of the compound in mouse liver microsomes assessed as parent compound remaining at 1 uM preincubated for 5 mins followed by NADPH addition and measured after 60 mins by LC-MS/MS analysis
Data set [8] can be described thus: Toxicity in BALB/c nu/nu mouse xenografted with human NCI-H2228 cells at 50 mg/kg, po qd for 23 days. Format: organism-based. The settings on record: in vivo, 552 h, time 23 day.
Data set [9] can be described thus: in vitro. Particulars: mouse, liver microsomes. The source holds these as a separate data set.
Description: Half life in mouse liver microsomes at 1 uM preincubated for 5 mins followed by NADPH addition and measured for 60 mins by LC-MS/MS analysis
Data set [10] in a line: in vitro. Particulars: mouse, liver microsomes. This is another data set of the same source.
Description: Intrinsic clearance in mouse liver microsomes at 1 uM preincubated for 5 mins followed by NADPH addition and measured for 60 mins by LC-MS/MS analysis
A short description of data set [11]: Toxicity in BALB/c nu/nu mouse xenografted with human NCI-H2228 cells assessed as body weight loss at 50 mg/kg, po qd for 23 days. The format is organism-based. Particulars: in vivo, 552 h, time 23 day.
Data set [12] in a line: in vitro. Particulars: human, liver microsomes. This is another data set of the same source.
Description: Metabolic stability of the compound in human liver microsomes assessed as parent compound remaining at 1 uM preincubated for 5 mins followed by NADPH addition and measured after 60 mins by LC-MS/MS analysis
A short description of data set [13]: Cmax in human NCI-H2228 cells xenografted BALB/c nu/nu mouse plasma at 50 mg/kg, po qd for 23 days by UPLC-MS/MS analysis. Format: ADME, organism-based. Details: time 23 day, dose 50 mg/kg, route po.
Data set [14] can be described thus: AUC (0 to t) in human NCI-H2228 cells xenografted BALB/c nu/nu mouse plasma at 50 mg/kg, po qd for 23 days by UPLC-MS/MS analysis. The format is ADME, organism-based. Details: time 23 day, dose 50 mg/kg, route po.

pIC50: −log10 of the molar value.

`Cc1cc(Nc2ncc(Cl)c(Nc3cccc4c3B(O)OC4)n2)c(OC(C)C)cc1C1CCNCC1` showed a pIC50 in the data set with NCI-H2228 [1] of 6.21.
In the case of `COc1cc(N2CCC(N(C)C)CC2)ccc1Nc1ncc(Cl)c(Nc2cccc3c2B(O)OC3)n1`, the pIC50 in the data set on NCI-H2228 [1] was 6.20.
In the case of `COc1cc(N2CCC(N3CCN(C)CC3)CC2)ccc1Nc1ncc(Cl)c(Nc2cccc3c2B(O)OC3)n1`, the pIC50 with NCI-H2228 [1] is 6.16.
With `COc1cc(N2CCC(N(C)C)CC2)ccc1Nc1ncc(Cl)c(Nc2ccc3c(c2)B(O)OC3)n1`, the Tmax in [2] amounted to 3.6 h. In addition, the inhibition in vivo at 50 mg/kg with NCI-H2228 [3] stood at 52%. For the same compound, the concentration at 552 h in [4] was found to be 1200 ng/g. In addition, the microsomal CLint at 1 h, 1 µM in the data set “in vitro [5]” is 5.8 µL/min/mg; in the data set “in vitro [10]” it was 36.5 µL/min/mg. Also, the figures for the half-life at 1 h, 1 µM in the data set “in vitro [6]” and in the data set “in vitro [9]” were 3.97 h and 0.633 h, respectively. Moreover, the share remaining at 1 h, 1 µM in “in vitro [7]” turned out to be 32.8%; in “in vitro [12]” it was 82.6%. The pIC50 in the data set on NCI-H2228 [1] is 6.28. Further, the Activity result in data set [8] and in data set [11] was “Non-Toxic” throughout. Besides, the Cmax in data set [13] was found to be 3200 ng/mL. The compound also registered an AUC(0-t) at 552 h in data set [14] of 15400 ng·h/mL.
Consider `Cc1cc(Nc2ncc(Cl)c(Nc3ccc4c(c3)B(O)OC4)n2)c(OC(C)C)cc1C1CCNCC1`, for which the pIC50 in the data set on NCI-H2228 [1] is 5.59.
Still for that read-out and setting: under `COc1cc(N2CCC(N3CCN(C)CC3)CC2)ccc1Nc1ncc(Cl)c(Nc2ccc3c(c2)B(O)OC3)n1` stands 5.95.
As for `COc1cc(N2CCN(C)CC2)ccc1Nc1ncc(Cl)c(Nc2ccc3c(c2)B(O)OC3)n1`, the intrinsic clearance (microsomal CLint) at 1 h, 1 µM was 7.8 µL/min/mg in the data set “in vitro [5]” and 31.9 µL/min/mg in the data set “in vitro [10]”. Also, the half-life at 1 h, 1 µM in “in vitro [6]” was 2.97 h; in “in vitro [9]”, 0.725 h. Further, the share remaining at 1 h, 1 µM in the data set “in vitro [7]” amounted to 37.4%; in the data set “in vitro [12]”, 77.8%. This compound gave a pIC50 in the data set on NCI-H2228 [1] of 6.08.
